Activity calls are given as the source filed them. No cut-off for these calls is given here.

Assay [1] deals with LNCaP. Put plainly: Induction of apoptosis in human androgen-dependent LNCAP cells assessed as inhibition of androgen receptor gene expression at 95 uM by RT-PCR analysis in presence of 1 nM […]. It counts as functional, cell-based.
In assay [2] the test system is LNCaP. Put plainly: Induction of apoptosis in human androgen-dependent LNCAP cells assessed as PARP cleavage at 95 uM after 12 hrs by Western blot analysis. It counts as functional, cell-based. Background: In western blotting, separated proteins are transferred to a membrane and probed.
Assay [3] relates to LNCaP. Put plainly: Induction of apoptosis in human androgen-dependent LNCAP cells assessed as inhibition of PSA gene expression at 95 uM by RT-PCR analysis. It counts as functional, cell-based.
Assay [4] deals with LNCaP. Put plainly: Induction of apoptosis in human androgen-dependent LNCAP cells assessed as inhibition of PSA protein expression at 95 uM by Western blot analysis. It counts as functional, cell-based. The note with it: TDE = time-dependent effect.
A short description of assay [5]: Induction of apoptosis in human hormone-refractory C4-2B cells assessed as cell viability after 24 hrs by MTT assay. It counts as functional. The note with it: LNCaP C4-2B. (In general: Tetrazolium dyes change colour on reduction, which living cells bring about.)
Assay [6] deals with LNCaP. Put plainly: Induction of apoptosis in human androgen-dependent LNCAP cells assessed as inhibition of androgen receptor gene expression at 95 uM by RT-PCR analysis. It counts as functional, cell-based.
Assay [7] has as its system LNCaP. Kind of assay: Induction of apoptosis in human androgen-dependent LNCAP cells assessed as cytochrome c release from mitochondria at 95 uM after 24 hrs by Western blot analysis. It counts as functional, cell-based.
The test system of assay [8] is LNCaP. Kind of assay: Induction of apoptosis in human androgen-dependent LNCAP cells assessed as inhibition of PSA gene expression at 95 uM by RT-PCR analysis in presence of 1 nM […]. It counts as functional, cell-based.
Assay [9] has as its system LNCaP. Kind of assay: Induction of apoptosis in human androgen-dependent LNCAP cells assessed as inhibition of androgen receptor expression at 95 uM by Western blot analysis. As to conditions: TDE = time-dependent effect. It counts as functional, cell-based.
For assay [10], the system named is LNCaP. Put plainly: Induction of apoptosis in human androgen-dependent LNCAP cells assessed as […] after 24 hrs by MTT assay. It counts as functional, cell-based.
Assay [11] deals with LNCaP. Kind of assay: Induction of apoptosis in human androgen-dependent LNCAP cells assessed as nuclei DNA fragmentation at 95 uM after 24 hrs by TUNEL assay. It counts as functional, cell-based.
In assay [12] the test system is LNCaP. Kind of assay: Induction of apoptosis in human androgen-dependent LNCAP cells assessed as increase in active caspase 3 at 95 uM up to 48 hrs by Western blot analysis. It counts as functional, cell-based.
Assay [13] deals with LNCaP. Kind of assay: Induction of apoptosis in human androgen-dependent LNCAP cells assessed as increase in active caspase 9 at 95 uM up to 48 hrs by Western blot analysis. It counts as functional, cell-based.

For the compound `C=CC1CC2(O)CC3(O)CCC=CC3C2(O)C1(O)CCC` (stereo not drawn), the outcome with LNCaP [1], in the assay on LNCaP [2], in the assay with LNCaP [3], in the assay with LNCaP [6], in the assay on LNCaP [7] and in the assay on LNCaP [8] was Active. Further, the result in the assay on LNCaP [11], in the assay with LNCaP [12] and in the assay with LNCaP [13] was Active. Moreover, the Activity entry in the assay with LNCaP [4] and in the assay on LNCaP [9] was “tde” each time. The IC50 (usually the concentration that gives 50% inhibition) in assay [5] came to 199 µM; in the assay with LNCaP [10], 95 µM.
